Measured values: the Kinase Knowledgebase extract (Sharma et al. 2016)

Legend:
[1] = target: PIK3CG (human) (UniProt P48736); assay: Inhibition of PIK3CG Kinase Activity
[2] = target: PIK3CA (human) (UniProt P42336); assay: Inhibition of PIK3CA Kinase Activity
PIK3CA (human), sequence (P42336 whole entry, looked up): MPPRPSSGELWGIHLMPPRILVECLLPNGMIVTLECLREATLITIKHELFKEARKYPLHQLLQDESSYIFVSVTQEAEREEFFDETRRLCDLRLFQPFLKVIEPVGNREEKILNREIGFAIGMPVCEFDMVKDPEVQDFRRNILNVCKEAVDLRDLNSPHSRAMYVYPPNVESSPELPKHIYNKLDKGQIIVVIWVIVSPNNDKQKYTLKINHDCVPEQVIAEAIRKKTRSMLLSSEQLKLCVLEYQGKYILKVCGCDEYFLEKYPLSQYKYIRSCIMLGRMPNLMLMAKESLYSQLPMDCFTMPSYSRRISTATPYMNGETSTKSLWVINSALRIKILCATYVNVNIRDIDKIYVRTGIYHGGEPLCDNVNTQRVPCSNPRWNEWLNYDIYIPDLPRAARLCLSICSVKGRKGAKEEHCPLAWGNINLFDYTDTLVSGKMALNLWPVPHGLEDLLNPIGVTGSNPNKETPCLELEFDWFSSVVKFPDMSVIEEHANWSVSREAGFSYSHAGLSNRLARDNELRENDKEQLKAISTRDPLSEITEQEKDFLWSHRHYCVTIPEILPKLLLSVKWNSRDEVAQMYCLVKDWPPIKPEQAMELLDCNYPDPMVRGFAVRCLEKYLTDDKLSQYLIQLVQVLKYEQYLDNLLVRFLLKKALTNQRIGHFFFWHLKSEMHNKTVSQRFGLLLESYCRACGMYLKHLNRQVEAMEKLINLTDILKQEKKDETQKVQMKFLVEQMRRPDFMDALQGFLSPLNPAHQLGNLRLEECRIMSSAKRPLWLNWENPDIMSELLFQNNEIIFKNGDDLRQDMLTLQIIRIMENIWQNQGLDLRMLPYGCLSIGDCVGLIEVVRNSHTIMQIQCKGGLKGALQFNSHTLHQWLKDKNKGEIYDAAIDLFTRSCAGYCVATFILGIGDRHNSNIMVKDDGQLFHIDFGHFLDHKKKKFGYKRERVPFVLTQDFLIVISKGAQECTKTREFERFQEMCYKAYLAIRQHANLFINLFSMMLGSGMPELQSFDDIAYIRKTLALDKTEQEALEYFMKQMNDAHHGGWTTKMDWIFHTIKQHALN

PIK3CG (human), sequence (P48736 whole entry, looked up): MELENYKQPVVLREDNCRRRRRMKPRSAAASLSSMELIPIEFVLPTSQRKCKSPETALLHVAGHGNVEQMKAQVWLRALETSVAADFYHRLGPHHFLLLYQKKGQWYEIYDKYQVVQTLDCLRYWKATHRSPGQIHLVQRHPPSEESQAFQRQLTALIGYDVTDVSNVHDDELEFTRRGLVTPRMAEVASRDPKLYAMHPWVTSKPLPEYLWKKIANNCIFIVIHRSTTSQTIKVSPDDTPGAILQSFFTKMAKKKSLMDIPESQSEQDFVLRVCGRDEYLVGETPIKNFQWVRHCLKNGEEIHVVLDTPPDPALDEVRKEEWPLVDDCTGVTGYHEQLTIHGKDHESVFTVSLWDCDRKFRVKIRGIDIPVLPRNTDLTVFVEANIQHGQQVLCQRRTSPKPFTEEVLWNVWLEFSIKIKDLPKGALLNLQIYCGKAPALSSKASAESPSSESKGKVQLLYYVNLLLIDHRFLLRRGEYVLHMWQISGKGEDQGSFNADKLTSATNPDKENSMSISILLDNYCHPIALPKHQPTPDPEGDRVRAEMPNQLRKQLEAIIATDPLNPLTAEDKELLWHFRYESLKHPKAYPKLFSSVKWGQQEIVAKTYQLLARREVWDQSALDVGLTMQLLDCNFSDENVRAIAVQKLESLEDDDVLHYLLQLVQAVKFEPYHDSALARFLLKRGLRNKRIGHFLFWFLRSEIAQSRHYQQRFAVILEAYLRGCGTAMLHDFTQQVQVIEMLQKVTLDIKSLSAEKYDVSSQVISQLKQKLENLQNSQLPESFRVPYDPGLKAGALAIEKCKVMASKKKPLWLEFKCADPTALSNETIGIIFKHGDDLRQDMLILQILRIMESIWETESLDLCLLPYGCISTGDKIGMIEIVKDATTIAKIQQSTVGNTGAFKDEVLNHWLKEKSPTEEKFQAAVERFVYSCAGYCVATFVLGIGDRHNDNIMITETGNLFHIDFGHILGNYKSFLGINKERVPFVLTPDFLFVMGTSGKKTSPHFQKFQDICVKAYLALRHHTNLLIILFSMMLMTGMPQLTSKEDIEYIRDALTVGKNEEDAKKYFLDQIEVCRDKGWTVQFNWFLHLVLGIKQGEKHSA

SMILES	IC50 [1] [µM]	IC50 [2] [µM]
CN(C)CCCNC(=O)Nc1ccc(-c2nc(N3CCOCC3)c3ccc4c(ccn4C)c3n2)cc1	10	
CCCNC(=O)Nc1ccc(-c2nc(N3CCOCC3)c3ccc4c(ccn4C)c3n2)cc1	8.4	5.66
Cn1ccc2c3nc(-c4cccc(C(N)=O)c4)nc(N4CCOCC4)c3ccc21	7.42	2.56
CN1CCN(C(=O)Nc2ccc(-c3nc(N4CCOCC4)c4ccc5c(ccn5C)c4n3)cc2)CC1	10	

The remaining lines, values ahead:

IC50 [1] [µM]	IC50 [2] [µM]	SMILES
2.77	4.28	Cn1ccc2c3nc(-c4cccc(C#N)c4)nc(N4CCOCC4)c3ccc21
9.84	12	Cn1ccc2c3nc(-c4ccc(C(=O)O)cc4)nc(N4CCOCC4)c3ccc21
4.66	6.31	Cn1ccc2c3nc(-c4cccc5[nH]ccc45)nc(C4COCCN4)c3ccc21 (stereo not drawn)
10		Cn1ccc2c3nc(-c4ccc(N)cc4)nc(N4CCOCC4)c3ccc21
